Measured values reported in patent US10005769B2, “2,3-dihydrobenzofuran-5YL compounds as DYRK kinase inhibitors” (4SC DISCOVERY GMBH, priority 2013, dated 2018).

Biological target: DYRK1B (Homo sapiens (Human), UniProt Q9Y463)
Assay: DYRK1B Kinase Assay (33P ATP, DYRKtide substrate, Reaction Biology Corp.)
Type: biochemical
Conditions: 0.3 nM DYRK1B, 20 μM DYRKtide, 10 μM ATP, 25° C., 120 min
Experimental: The assay was carried out by Reaction Biology Corp., […], Pa., USA according to specifications by Reaction Biology Corp., as detailed herein below and further described in Anastassiadis et al., Nature Biotechnology, 29 (2011) 1039-1045. The substrate DYRKtide (synthetic peptide RRRFRPASPLRGPPK) was dissolved in freshly prepared Base Reaction Buffer (20 mM Hepes (pH 7.5), 10 mM MgCl2, 1 mM EGTA, 0.02% Brij35, 0.02 mg/ml BSA, 0.1 mM Na3VO4, 2 mM DTT, 1% DMSO) at a concentration of 20 μM. DYRK1B was added to the substrate solution in a concentration of 0.3 nM and gently mixed. Dilution series of the compounds according to the present invention in DMSO were prepared. Each dilution was added to a batch of the above reaction mix, followed 20 min later by addition of a mixture of ATP and ^33P ATP (specific activity 0.01 μCi/μl final) to a final concentration of 10 μM. Reactions were carried out at 25° C. for 120 min, followed by spotting the reactions onto P81 ion exchange filter paper. Unbound phosphate was removed by extensive washing of the filters in 0.75% phosphoric acid. […] IC50 values and curve fits were obtained using Prism (Graph Pad Software). DYRK1B used in the above assays are further described in the below table: [table] Exemplary compound dilution series, final concentrations of compound in the assay vessel; the individual concentrations and the range of concentrations covered by the dilution series may differ for each compound, as long as enough data points are obtained to determine the compound's IC50: DYRK 1[…].

Sequence of DYRK1B (Q9Y463 whole entry): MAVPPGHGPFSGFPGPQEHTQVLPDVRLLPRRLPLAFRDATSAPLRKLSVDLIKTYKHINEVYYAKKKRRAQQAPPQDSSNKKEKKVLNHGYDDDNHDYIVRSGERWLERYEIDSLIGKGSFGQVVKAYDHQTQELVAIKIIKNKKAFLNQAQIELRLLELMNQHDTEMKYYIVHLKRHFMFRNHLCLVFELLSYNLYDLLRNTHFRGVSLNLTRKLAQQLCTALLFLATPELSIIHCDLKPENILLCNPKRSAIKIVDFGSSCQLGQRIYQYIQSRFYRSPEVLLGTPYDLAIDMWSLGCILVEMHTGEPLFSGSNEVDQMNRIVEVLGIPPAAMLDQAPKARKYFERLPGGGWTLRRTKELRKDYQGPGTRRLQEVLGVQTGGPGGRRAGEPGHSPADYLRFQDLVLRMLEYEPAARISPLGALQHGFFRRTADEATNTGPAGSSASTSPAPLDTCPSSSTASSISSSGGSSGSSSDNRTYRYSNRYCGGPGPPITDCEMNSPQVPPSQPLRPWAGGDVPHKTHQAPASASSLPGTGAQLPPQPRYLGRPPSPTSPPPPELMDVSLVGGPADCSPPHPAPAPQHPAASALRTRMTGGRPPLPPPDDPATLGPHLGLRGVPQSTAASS

SMILES | IC50
O=C(Nc1ncccc1O)c1csc(-c2ccc3c(c2)CCO3)n1 [Compound 16, 2-(2,3-Dihydrobenzofuran-5-yl)-N-(3-hydroxypyridin-2-yl)thiazole-4-carboxamide] | 177 nM
N#Cc1ccnc(NC(=O)c2csc(-c3ccc4c(c3)CCO4)n2)c1 [Compound 18, N-(4-Cyanopyridin-2-yl)-2-(2,3-dihydrobenzofuran-5-yl)thiazole-4-carboxamide] | 19.5 nM
O=C(Nc1nc2ccc(CN3CCOCC3)cc2s1)c1csc(-c2ccc3c(c2)CCO3)n1 [Compound 40, 2-(2,3-Dihydrobenzofuran-5-yl)-N-(6-(morpholinomethyl)benzo[d]thiazol-2-yl)thiazole-4-carboxamide] | 15.7 nM
O=C(Nc1nc2cc(C(=O)c3cccs3)ccc2[nH]1)c1csc(-c2ccc3c(c2)CCO3)n1 [Compound 48, 2-(2,3-Dihydro-1-benzofuran-5-yl)-N-[5-(thiophene-2-carbonyl)-1H-1,3-benzodiazol-2-yl]-1,3-thiazole-4-carboxamide] | 5.57 nM
O=C(Nc1nc2cc(C(=O)c3ccc[nH]3)ccc2[nH]1)c1csc(-c2ccc3c(c2)CCO3)n1 [Compound 49, 2-(2,3-Dihydro-1-benzofuran-5-yl)-N-[5-(H-pyrrole-2-carbonyl)-1H-1,3-benzodiazol-2-yl]-1,3-thiazole-4-carboxamide] | 6.63 nM
O=C(Nc1nc2ccccc2[nH]1)c1csc(-c2ccc3c(c2)CCO3)n1 [Compound 50, N-(1H-1,3-Benzodiazol-2-yl)-2-(2,3-dihydro-1-benzofuran-5-yl)-1,3-thiazole-4-carboxamide] | 6.73 nM
O=C(Nc1nc2ccc(C(=O)N3CCOCC3)cc2s1)c1csc(-c2ccc3c(c2)CCO3)n1 [Compound 51, 2-(2,3-Dihydro-1-benzofuran-5-yl)-N-[6-(morpholine-4-carbonyl)-1,3-benzothiazol-2-yl]-1,3-thiazole-4-carboxamide] | 9.17 nM
O=C(Nc1nnc(N2CCCCC2)s1)c1csc(-c2ccc3c(c2)CCO3)n1 [Compound 52, 2-(2,3-Dihydro-1-benzofuran-5-yl)-N-[5-(piperidin-1-yl)-1,3,4-thiadiazol-2-yl]-1,3-thiazole-4-carboxamide] | 12.6 nM
CCOC(=O)C1CCN(c2nnc(NC(=O)c3csc(-c4ccc5c(c4)CCO5)n3)s2)CC1 [Compound 53, Ethyl 1-{5-[2-(2,3-dihydro-1-benzofuran-5-yl)-1,3-thiazole-4-amido]-1,3,4-thiadiazol-2-yl}piperidine-4-carboxylate] | 14.4 nM
Cn1c(NC(=O)c2csc(-c3ccc4c(c3)CCO4)n2)nc2ccccc21 [Compound 54, 2-(2,3-Dihydro-1-benzofuran-5-yl)-N-(1-methyl-1H-1,3-benzodiazol-2-yl)-1,3-thiazole-4-carboxamide] | 17.6 nM
CCOC(=O)c1c[nH]nc1NC(=O)c1csc(-c2ccc3c(c2)CCO3)n1 [Compound 55, Ethyl 3-[2-(2,3-dihydro-1-benzofuran-5-yl)-1,3-thiazole-4-amido]-1H-pyrazole-4-carboxylate] | 20.6 nM
O=C(Nc1nnc(N2CCOCC2)s1)c1csc(-c2ccc3c(c2)CCO3)n1 [Compound 56, 2-(2,3-Dihydro-1-benzofuran-5-yl)-N-[5-(morpholin-4-yl)-1,3,4-thiadiazol-2-yl]-1,3-thiazole-4-carboxamide] | 21.7 nM
CN1CCN(c2nnc(NC(=O)c3csc(-c4ccc5c(c4)CCO5)n3)s2)CC1 [Compound 57, 2-(2,3-Dihydro-1-benzofuran-5-yl)-N-[5-(4-methylpiperazin-1-yl)-1,3,4-thiadiazol-2-yl]-1,3-thiazole-4-carboxamide] | 26.4 nM
Cc1cnc(NC(=O)c2csc(-c3ccc4c(c3)CCO4)n2)s1 [Compound 58, 2-(2,3-Dihydro-1-benzofuran-5-yl)-N-(5-methyl-1,3-thiazol-2-yl)-1,3-thiazole-4-carboxamide] | 27.6 nM
O=C(Nc1nnc(-c2ccncc2)s1)c1csc(-c2ccc3c(c2)CCO3)n1 [Compound 59, 2-(2,3-Dihydro-1-benzofuran-5-yl)-N-[5-(pyridin-4-yl)-1,3,4-thiadiazol-2-yl]-1,3-thiazole-4-carboxamide] | 31.5 nM
O=C(c1ccccc1)c1ccc2[nH]c(NC(=O)c3csc(-c4ccc5c(c4)CCO5)n3)nc2c1 [Compound 60, N-(5-Benzoyl-1H-1,3-benzodiazol-2-yl)-2-(2,3-dihydro-1-benzofuran-5-yl)-1,3-thiazole-4-carboxamide] | 38.3 nM
O=C(Nc1cc[nH]n1)c1csc(-c2ccc3c(c2)CCO3)n1 [Compound 62, 2-(2,3-Dihydro-1-benzofuran-5-yl)-N-(1H-pyrazol-3-yl)-1,3-thiazole-4-carboxamide] | 42.4 nM
O=C(Nc1nccs1)c1csc(-c2ccc3c(c2)CCO3)n1 [Compound 65, 2-(2,3-Dihydro-1-benzofuran-5-yl)-N-(1,3-thiazol-2-yl)-1,3-thiazole-4-carboxamide] | 48.7 nM

Results, then the compound that gave them:

IC50 | SMILES
152 nM | COC(=O)c1n[nH]c(NC(=O)c2csc(-c3ccc4c(c3)CCO4)n2)n1 [Compound 15, Methyl 5-(2-(2,3-dihydrobenzofuran-5-yl)thiazole-4-carboxamido)-1H-1,2,4-triazole-3-carboxylate]
18.3 nM | CSc1nnc(NC(=O)c2csc(-c3ccc4c(c3)CCO4)n2)[nH]1 [Compound 21, 2-(2,3-Dihydrobenzofuran-5-yl)-N-(5-(methylthio)-4H-1,2,4-triazol-3-yl)thiazole-4-carboxamide]
17.8 nM | CC(C)Sc1n[nH]c(NC(=O)c2csc(-c3ccc4c(c3)CCO4)n2)n1 [Compound 24, 2-(2,3-Dihydrobenzofuran-5-yl)-N-(3-(isopropylthio)-1H-1,2,4-triazol-5-yl)thiazole-4-carboxamide]
7.97 nM | CCCSc1n[nH]c(NC(=O)c2csc(-c3ccc4c(c3)CCO4)n2)n1 [Compound 30, 2-(2,3-Dihydrobenzofuran-5-yl)-N-(3-(propylthio)-1H-1,2,4-triazol-5-yl)thiazole-4-carboxamide]
68.1 nM | O=C(Nc1nnc(C(=O)O)[nH]1)c1csc(-c2ccc3c(c2)CCO3)n1 [Compound 31, 5-(2-(2,3-Dihydrobenzofuran-5-yl)thiazole-4-carboxamido)-4H-1,2,4-triazole-3-carboxylic acid]
337 nM | O=C(Nc1nc(SCc2ccc(Cl)cc2)n[nH]1)c1csc(-c2ccc3c(c2)CCO3)n1 [Compound 33, N-(3-((4-Chlorobenzyl)thio)-1H-1,2,4-triazol-5-yl)-2-(2,3-dihydrobenzofuran-5-yl)thiazole-4-carboxamide]
38.1 nM | CC(C)CSc1n[nH]c(NC(=O)c2csc(-c3ccc4c(c3)CCO4)n2)n1 [Compound 34, 2-(2,3-Dihydrobenzofuran-5-yl)-N-(3-(isobutylthio)-1H-1,2,4-triazol-5-yl)thiazole-4-carboxamide]
112 nM | O=C(Nc1nc(CCc2ccccc2)n[nH]1)c1csc(-c2ccc3c(c2)CCO3)n1 [Compound 36, 2-(2,3-Dihydrobenzofuran-5-yl)-N-(3-phenethyl-1H-1,2,4-triazol-5-yl)thiazole-4-carboxamide]
56 nM | O=C(Nc1nc(SCCc2ccccc2)n[nH]1)c1csc(-c2ccc3c(c2)CCO3)n1 [Compound 37, 2-(2,3-Dihydrobenzofuran-5-yl)-N-(3-(phenethylthio)-1H-1,2,4-triazol-5-yl)thiazole-4-carboxamide]
3.97 nM | N#CCSc1n[nH]c(NC(=O)c2csc(-c3ccc4c(c3)CCO4)n2)n1 [Compound 38, N-(3-((Cyanomethyl)thio)-1H-1,2,4-triazol-5-yl)-2-(2,3-dihydrobenzofuran-5-yl)thiazole-4-carboxamide]
11.9 nM | C=CCSc1n[nH]c(NC(=O)c2csc(-c3ccc4c(c3)CCO4)n2)n1 [Compound 39, N-(3-(Allylthio)-1H-1,2,4-triazol-5-yl)-2-(2,3-dihydrobenzofuran-5-yl)thiazole-4-carboxamide]
2.06 nM | O=C(Nc1nc(-c2ccncc2)n[nH]1)c1csc(-c2ccc3c(c2)CCO3)n1 [Compound 42, 2-(2,3-Dihydrobenzofuran-5-yl)-N-(3-(pyridin-4-yl)-1H-1,2,4-triazol-5-yl)thiazole-4-carboxamide]
535 nM | CS(=O)(=O)c1n[nH]c(NC(=O)c2csc(-c3ccc4c(c3)CCO4)n2)n1 [Compound 43, 2-(2,3-Dihydrobenzofuran-5-yl)-N-(3-(methylsulfonyl)-1H-1,2,4-triazol-5-yl)thiazole-4-carboxamide]
39.1 nM | CCOC(=O)CSc1n[nH]c(NC(=O)c2csc(-c3ccc4c(c3)CCO4)n2)n1 [Compound 61, Ethyl 2-({5-[2-(2,3-dihydro-1-benzofuran-5-yl)-1,3-thiazole-4-amido]-1H-1,2,4-triazol-3-yl}sulfanyl)acetate]
47.1 nM | O=C(Nc1nc[nH]n1)c1csc(-c2ccc3c(c2)CCO3)n1 [Compound 63, 2-(2,3-Dihydro-1-benzofuran-5-yl)-N-(1H-1,2,4-triazol-3-yl)-1,3-thiazole-4-carboxamide]
48.3 nM | COc1nc(NC(=O)c2csc(-c3ccc4c(c3)CCO4)n2)ns1 [Compound 64, 2-(2,3-Dihydro-1-benzofuran-5-yl)-N-(5-methoxy-1,2,4-thiadiazol-3-yl)-1,3-thiazole-4-carboxamide]
